How the values were obtained:
Test in all cases: relative viability (nuclei count vs DMSO), 5 days (fraction); higher = more cells survive
[1] = compound: C=CCNC1=C2C[C@@H](C)C[C@H](OC)[C@H](O)[C@@H](C)/C=C(\C)[C@H](OC(N)=O)[C@@H](OC)/C=C\C=C(/C)C(=O)NC(=CC1=O)C2=O [17-AAG] + CC1(C)CCC(c2ccc(Cl)cc2)=C(CN2CCN(c3ccc(C(=O)NS(=O)(=O)c4ccc(N[C@H](CCN5CCOCC5)CSc5ccccc5)c(S(=O)(=O)C(F)(F)F)c4)cc3)CC2)C1 [Navitoclax] (partner 0.5 µM)
Procedure, shortened: (§1)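 Five library-drug doses in √10 steps were combined with a fixed anchor-drug dose, or a single drug was given alone, by pin tool to lung cancer cell lines in 1536-well plates the day after seeding. Nuclei were stained and counted after 5 days. Relative viability is the nuclei count in treated wells over that in vehicle wells, taken as the median of duplicate plates.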

[2] = compound: C=CCNC1=C2C[C@@H](C)C[C@H](OC)[C@H](O)[C@@H](C)/C=C(\C)[C@H](OC(N)=O)[C@@H](OC)/C=C\C=C(/C)C(=O)NC(=CC1=O)C2=O [17-AAG] + C[C@@H](Oc1cc(-c2cnn(C3CCNCC3)c2)cnc1N)c1c(Cl)ccc(F)c1Cl [Crizotinib] (partner 1 µM)
Procedure, shortened: as §1

[3] = compound: C=CCNC1=C2C[C@@H](C)C[C@H](OC)[C@H](O)[C@@H](C)/C=C(\C)[C@H](OC(N)=O)[C@@H](OC)/C=C\C=C(/C)C(=O)NC(=CC1=O)C2=O [17-AAG] + Cc1cc(Nc2cc(N3CCN(C)CC3)nc(Sc3ccc(NC(=O)C4CC4)cc3)n2)n[nH]1 [Tozasertib] (partner 0.1 µM)
Procedure, shortened: as §1

[4] = compound: C=CCNC1=C2C[C@@H](C)C[C@H](OC)[C@H](O)[C@@H](C)/C=C(\C)[C@H](OC(N)=O)[C@@H](OC)/C=C\C=C(/C)C(=O)NC(=CC1=O)C2=O [17-AAG] + O=C(CCCCCCC(=O)Nc1ccccc1)NO [Vorinostat] (partner 1 µM)
Procedure, shortened: as §1

Cell Line | relative viability ([1]; first compound 0.00128 µM) | relative viability ([1]; first compound 0.004048 µM) | relative viability ([1]; first compound 0.0128 µM) | relative viability ([1]; first compound 0.04048 µM) | relative viability ([1]; first compound 0.128 µM) | relative viability ([2]; first compound 0.00128 µM) | relative viability ([2]; first compound 0.004048 µM) | relative viability ([2]; first compound 0.0128 µM) | relative viability ([2]; first compound 0.04048 µM) | relative viability ([2]; first compound 0.128 µM) | relative viability ([3]; first compound 0.00128 µM) | relative viability ([3]; first compound 0.004048 µM) | relative viability ([3]; first compound 0.0128 µM) | relative viability ([3]; first compound 0.04048 µM) | relative viability ([3]; first compound 0.128 µM) | relative viability ([4]; first compound 0.00128 µM) | relative viability ([4]; first compound 0.004048 µM) | relative viability ([4]; first compound 0.0128 µM) | relative viability ([4]; first compound 0.04048 µM) | relative viability ([4]; first compound 0.128 µM)
NCI-H3122 | 1.02 | 1.02 | 0.949 | 0.194 | 0.159 | 0.285 | 0.258 | 0.233 | 0.246 | 0.173 | 0.473 | 0.187 | 0.0915 | 0.104 | 0.0922 | 0.934 | 0.816 | 0.219 | 0.111 | 0.0733
HCC-15 | 0.767 | 0.57 | 0.434 | 0.469 | 0.144 | 0.767 | 0.758 | 0.456 | 0.4 | 0.132 | 0.429 | 0.453 | 0.365 | 0.124 | 0.0778 | 0.892 | 0.995 | 0.641 | 0.407 | 0.263
RERF-LC-KJ | 1.09 | 0.747 | 0.712 | 0.254 | 0.234 | 0.894 | 0.831 | 0.901 | 0.616 | 0.232 | 0.551 | 0.754 | 0.293 | 0.275 | 0.257 | 0.796 | 0.686 | 0.475 | 0.321 | 0.222
NCI-H1944 | 1.05 | 1.05 | 1.02 | 0.948 | 0.372 | 1.01 | 1.18 | 1.02 | 0.799 | 0.289 | 0.239 | 0.248 | 0.219 | 0.213 | 0.138 | 0.486 | 0.506 | 0.397 | 0.257 | 0.134
HARA | 1.16 | 1.21 | 1.15 | 1.12 | 1.14 | 1.05 | 1.05 | 1.06 | 1.12 | 0.725 | 0.0961 | 0.125 | 0.135 | 0.148 | 0.132 | 0.485 | 0.586 | 0.517 | 0.396 | 0.097
NCI-H2126 | 0.864 | 0.845 | 0.878 | 0.796 | 0.381 | 1.08 | 1.02 | 1.01 | 0.951 | 0.43 | 0.9 | 0.842 | 0.44 | 0.26 | 0.298 | 0.865 | 0.933 | 0.782 | 0.199 | 0.227
LXF-289 | 0.995 | 0.907 | 0.891 | 0.536 | 0.184 | 0.789 | 0.783 | 0.73 | 0.572 | 0.163 | 0.204 | 0.22 | 0.203 | 0.127 | 0.0677 | 0.765 | 0.759 | 0.402 | 0.214 | 0.115
NCI-H520 | 1.09 | 0.836 | 1.03 | 0.19 | 0.161 | 0.924 | 0.663 | 0.492 | 0.112 | 0.0889 | 0.453 | 0.47 | 0.457 | 0.253 | 0.24 | 0.75 | 0.662 | 0.433 | 0.174 | 0.181
NCI-H2170 | 0.649 | 0.578 | 0.548 | 0.251 | 0.167 | 1.29 | 1.19 | 0.959 | 0.588 | 0.203 | 0.739 | 0.77 | 0.65 | 0.327 | 0.173 | 0.837 | 0.827 | 0.336 | 0.169 | 0.143
NCI-H2009 | 1.1 | 1.09 | 1.07 | 0.884 | 0.369 | 1.12 | 1.01 | 0.99 | 0.496 | 0.0881 | 0.727 | 0.72 | 0.756 | 0.65 | 0.259 | 0.681 | 0.724 | 0.735 | 0.699 | 0.276

Source: the supplement of paper PMC10307832
